# According to patent publication US20020169111A1, “Reversal of multidrug resistance in human colon carcinoma cells” (American Cyanamid Comany, priority 1998, published 2002):
# “And” between values parts separate entries of the source, which are not always exact repeats. Identical values can stand only once.
# Key:
# S1-B1-20 cells [1] = test: Reversal of resistance in P-gp expressing cells, alone or with 21 μM bisantrene; format: cell-based, human; set-up: Difference Score: unit not given here; settings: for Per Cent Survival with 21 μM bisantrene / Per Cent Survival Alone / Difference Score: S1-B1-20 cells; for Difference Score: survival alone minus survival with 21 μM bisantrene
# Protocol: To determine the specificity of FTC for non P-gp multidrug resistance, FTC was tested on S1-B1-20 cells which were selected for resistance to bisantrene and which express high levels of P-gp (Table 9)(Zhang, et al, Oncol. Res. 6291-301 (1994)). […] The 21 μM concentration of bisantrene is not inhibitory to the growth of the cells. Values shown are mean ± standard deviation from triplicate test wells.
# A549 = test: Sensitization of unselected cells to mitoxantrone; format: cell-based; settings: A549 non small cell lung carcinoma, not selected
# MCF-7/BCRP cells [2] = test: Dose modifying factor of FTC in BCRP-transfected cells; format: cell-based, human; settings: MCF-7/BCRP
# Protocol: (§1) Cell survival was estimated after 3 days using the SRB assay, and EC50 values were determined from cytotoxicity curves.
# S1 cells [3] = test: Dose modifying factor of FTC (SRB, EC50 ratio); format: cell-based, human
# Protocol: (§2) Cell survival was estimated after 3 days using the SRB assay. Cell survival was determined by the SRB assay and EC50 values were determined from toxicity curves. The dose modifying factor (DMF) is the ratio of EC50 values obtained in the absence and presence of reversal agent. Maximum DMF values (shown in parentheses) is the ratio of EC50 values of resistant and sensitive cells in the absence of the reversal agent. This value is obtained when resistance is reversed completely, and is the equivalent of the relative resistance.
# S1-M1-3.2 cells [4] = test: Dose modifying factor of FTC (SRB, EC50 ratio); format: cell-based, human; settings: S1-M1 cells
# Protocol: as §2
# 8226/MR4 cells = test: Reversal of mitoxantrone resistance in myeloid cells; format: cell-based, human; settings: selected for resistance to mitoxantrone
# MCF-7 cells [5] = test: Dose modifying factor of FTC (SRB, EC50 ratio); format: cell-based, human; settings: for Dose modifying factor (5 μM FTC): MCF-7 (untransfected, Table 11)
# Protocol: as §2
# (§3) In order to determine the utility of FTC as a reversal agent in other multidrug resistant cell lines, FTC was tested in two breast cancer cell lines which show a multidrug resistant phenotype with no overexpression of P-gp or MRP.
# as §1
# H460 = test: Sensitization of unselected cells to mitoxantrone; format: cell-based; settings: H460 non small cell lung carcinoma, not selected
# S1 cells [6] = test: Drug accumulation analysis with [14C] drug; format: cell-based, human; settings: 90 minutes
# Protocol: (§4) To determine the mechanism of resistance, drug resistant and sensitive cells were incubated with radioactive analogues of antitumor agents and cell-associated radioactivity was measured by scintillation counting. Alternatively, surrogates of chemotherapeutic drugs may be used. The surrogate has no antitumor activity itself but interacts with the cancer cell proteins such as P-gp or MRP in a similar manner as an anticancer drug. The surrogate chemotherapeutic drug would have a property such as fluorescence which is useful for determining the drug resistance mechanisms such as efflux.
# (§5) Cells were plated in 60 mm dishes (1×10^6 cells per dish) or in 24 well clusters (2 ×10^5 cells per well) and allowed to grow for 1-2 days. […] Drugs used were [^14C]-mitoxantrone (Amersham, 1 or 5 μM; specific activity 66 mCi/mmol) or [^14C]-doxorubicin (Amersham, 0.5 or 3 μM; specific activity 50-62 mCi/mmol ). […] Unbound drug was removed by washing twice in ice-cold phosphate buffered saline (PBS), cells were solubilized in 2 N NaOH at 37° C. for 1-2 hours, and analyzed by scintillation counting. Results were normalized to cell protein content measured by a Lowry assay.
# (§6) The cells were then washed, solubilized, and counted in a scintillation counter. Values are mean disintegration per minute per μg protein of triplicate determinations ± standard deviation.
# S1-B1-20 cells [7] = test: Drug accumulation analysis with [14C] drug; format: cell-based, human; settings: 90 minutes
# Protocol: as §4, §5, §6
# S1-M1-3.2 cells [8] = test: Drug accumulation analysis with [14C] drug; format: cell-based, human; settings: S1-M1-3.2 cells
# Protocol: as §4, §5, §6
# MCF-7/BCRP cells [9] = format: cell-based, human; settings: MCF-7/BCRP
# Protocol: (§7) All incubations were carried out in the absence or presence of FTC (1 or 5 μM).
# MCF-7 cells [10] = format: cell-based, human; settings: 1 hour retention phase
# Protocol: as §7
# MCF 7/AdVp cells = format: cell-based, human; settings: MCF 7/AdVp; 5 μM FTC with Paclitaxel
# Protocol: as §2, §3
# [11] = 1 μM [14C]-doxorubicin, 1 hour retention phase
# [12] = 1 μM daunorubicin, 1 hour retention phase
smiles,measurement,setting,value
COc1ccc2c3c([nH]c2c1)[C@H](C=C(C)C)N1C(=O)[C@@H]2CCCN2C(=O)[C@@H]1C3 [Fumitremorgin C],Per Cent Survival with 21 μM bisantrene,S1-B1-20 cells [1]; drug 0.1 μM,101 ± 1 Per Cent
same,Per Cent Survival Alone,S1-B1-20 cells [1]; drug 0.1 μM alone,99 ± 1 Per Cent
same,Difference Score,S1-B1-20 cells [1]; drug 0.1 μM,−4
same,Per Cent Survival with 21 μM bisantrene,S1-B1-20 cells [1]; drug 0.5 μM,103 ± 1 Per Cent
same,Per Cent Survival Alone,S1-B1-20 cells [1]; drug 0.5 μM alone,99 ± 1 Per Cent
same,Difference Score,S1-B1-20 cells [1]; drug 0.5 μM,−4
same,Per Cent Survival with 21 μM bisantrene,S1-B1-20 cells [1]; drug 1 μM,100 ± 0 Per Cent
same,Per Cent Survival Alone,S1-B1-20 cells [1]; drug 1 μM alone,98 ± 3 Per Cent
same,Difference Score,S1-B1-20 cells [1]; drug 1 μM,−2
same,Per Cent Survival with 21 μM bisantrene,S1-B1-20 cells [1]; drug 5 μM,103 ± 2 Per Cent
same,Per Cent Survival Alone,S1-B1-20 cells [1]; drug 5 μM alone,101 ± 3 Per Cent
same,Difference Score,S1-B1-20 cells [1]; drug 5 μM,−2
same,Per Cent Survival with 21 μM bisantrene,S1-B1-20 cells [1]; drug 10 μM,93 ± 1 Per Cent
same,Per Cent Survival Alone,S1-B1-20 cells [1]; drug 10 μM alone,88 ± 0 Per Cent
same,Difference Score,S1-B1-20 cells [1]; drug 10 μM,−4
same,Per Cent Survival with 21 μM bisantrene,S1-B1-20 cells [1]; drug 20 μM,89 ± 1 Per Cent
same,Per Cent Survival Alone,S1-B1-20 cells [1]; drug 20 μM alone,85 ± 0 Per Cent
same,Difference Score,S1-B1-20 cells [1]; drug 20 μM,−4
same,Per Cent Survival with 21 μM bisantrene,S1-B1-20 cells [1]; drug 40 μM,77 ± 2 Per Cent
same,Per Cent Survival Alone,S1-B1-20 cells [1]; drug 40 μM alone,83 ± 1 Per Cent
same,Difference Score,S1-B1-20 cells [1]; drug 40 μM,13
same,Per Cent Survival with 21 μM bisantrene,S1-B1-20 cells [1]; drug 80 μM,53 ± 5 Per Cent
same,Per Cent Survival Alone,S1-B1-20 cells [1]; drug 80 μM alone,35 ± 1 Per Cent
same,Difference Score,S1-B1-20 cells [1]; drug 80 μM,−18
same,reversal of resistance in P-gp positive S1-B1-20 cells (in words),S1-B1-20 cells [1]; bisantrene-selected,did not reverse resistance
same,sensitization to mitoxantrone (in words),A549,can be sensitized to mitoxantrone
same,Dose modifying factor (5 μM FTC),MCF-7/BCRP cells [2]; with Doxorubicin,6.6
same,Dose modifying factor (5 μM FTC),MCF-7/BCRP cells [2]; with Mitoxantrone,29.4
same,Dose modifying factor (5 μM FTC),MCF-7/BCRP cells [2]; with Paclitaxel,1.1
same,Dose modifying factor (5 μM FTC),MCF-7/BCRP cells [2]; with Topotecan,6.5
same,Dose modifying factor,S1 cells [3]; 5 μM FTC with Doxorubicin,1
same,Dose modifying factor,S1 cells [3]; 5 μM FTC with Mitoxantrone,1
same,Dose modifying factor,S1 cells [3]; 5 μM FTC with Paclitaxel,1.4
same,Dose modifying factor,S1 cells [3]; 5 μM FTC with Topotecan,0.9
same,Dose modifying factor,"S1-M1-3.2 cells [4]; 5 μM FTC with Doxorubicin, listed as FTC",26 and 25.9
same,Dose modifying factor,S1-M1-3.2 cells [4]; 5 μM FTC with Mitoxantrone,93
same,Dose modifying factor,S1-M1-3.2 cells [4]; 5 μM FTC with Paclitaxel,1.1
same,Dose modifying factor,S1-M1-3.2 cells [4]; 5 μM FTC with Topotecan,24
same,reversal of resistance in 8226/MR4 cells (in words),8226/MR4 cells,reversed low level resistance
same,Dose modifying factor,"MCF-7 cells [5]; MCF 7 (row above MCF 7/AdVp), 5 μM FTC with Doxorubicin",2.0
same,Dose modifying factor,"MCF-7 cells [5]; MCF 7 (row above MCF 7/AdVp), 5 μM FTC with Mitoxantrone",7.5
same,Dose modifying factor,"MCF-7 cells [5]; MCF 7 (row above MCF 7/AdVp), 5 μM FTC with Paclitaxel",1.0
same,Dose modifying factor,"MCF-7 cells [5]; MCF 7 (row above MCF 7/mtxR), 5 μM FTC with Doxorubicin",1.0
same,Dose modifying factor,"MCF-7 cells [5]; MCF 7 (row above MCF 7/mtxR), 5 μM FTC with Mitoxantrone",1.7
same,Dose modifying factor,"MCF-7 cells [5]; MCF 7 (row above MCF 7/mtxR), 5 μM FTC with Paclitaxel",0.8
same,Dose modifying factor (5 μM FTC),MCF-7 cells [5]; with Doxorubicin,1.0
same,Dose modifying factor (5 μM FTC),MCF-7 cells [5]; with Mitoxantrone,2.5
same,Dose modifying factor (5 μM FTC),MCF-7 cells [5]; with Paclitaxel,0.7
same,Dose modifying factor (5 μM FTC),MCF-7 cells [5]; with Topotecan,5.6
same,"Reversal by FTC (fold), range over drugs",MCF-7 cells [5]; parental unselected MCF-7 cells,0.8-1.7 fold
same,"reversal by FTC (fold), mitoxantrone and topotecan","MCF-7 cells [5]; untransfected MCF-7 cells, 5 μM FTC",2.5-5.6 fold
same,sensitization to mitoxantrone (in words),H460,can be sensitized to mitoxantrone
same,Doxorubicin Drug Accumulation with 1 μM FTC,S1 cells [6]; [14C] doxorubicin,111 ± 15 DPM/μg protein
same,Mitoxantrone Drug Accumulation with 1 μM FTC,S1 cells [6]; [14C] mitoxantrone,2246 ± 233 DPM/μg protein
same,Doxorubicin Drug Accumulation with 1 μM FTC,S1-B1-20 cells [7]; [14C] doxorubicin,26 ± 1 DPM/μg protein
same,Mitoxantrone Drug Accumulation with 1 μM FTC,S1-B1-20 cells [7]; [14C] mitoxantrone,1189 ± 53 DPM/μg protein
same,increase of amount of doxorubicin retained,S1-M1-3.2 cells [8]; 1 μM FTC,3.4 fold
same,increase of amount of mitoxantrone retained,S1-M1-3.2 cells [8]; 1 μM FTC,2 fold
same,Doxorubicin Drug Accumulation with 1 μM FTC,"S1-M1-3.2 cells [8]; [14C] doxorubicin, 90 minutes",65 ± 17 DPM/μg protein
same,Mitoxantrone Drug Accumulation with 1 μM FTC,"S1-M1-3.2 cells [8]; [14C] mitoxantrone, 90 minutes",2220 ± 147 DPM/μg protein
same,"[^14C] doxorubicin retention, 1 μM FTC",MCF-7/BCRP cells [9]; [11],9.5 ± 0.63 DPM per microgram protein
same,"[^14C] doxorubicin retention, 5 μM FTC",MCF-7/BCRP cells [9]; [11],9.9 ± 0.18 DPM per microgram protein
same,"daunorubicin retention, Channel Number (fluorescence units), 1 μM FTC",MCF-7/BCRP cells [9]; [12],12.2 ± 1.78 fluorescence units
same,"daunorubicin retention, Channel Number (fluorescence units), 5 μM FTC",MCF-7/BCRP cells [9]; [12],15.6 ± 0.94 fluorescence units
same,increase of amount of [^14C]-doxorubicin retained compared with untreated cells,MCF-7/BCRP cells [9]; FTC 1 or 5 μM,1.8 fold
same,increase of amount of daunorubicin retained compared with untreated cells,MCF-7/BCRP cells [9]; FTC 1 or 5 μM,1.8-2.3 fold
same,"[^14C] doxorubicin retention, 1 μM FTC",MCF-7 cells [10]; 1 μM [14C]-doxorubicin,10.3 ± 0.26 DPM per microgram protein
same,"[^14C] doxorubicin retention, 5 μM FTC",MCF-7 cells [10]; 1 μM [14C]-doxorubicin,11.0 ± 0.71 DPM per microgram protein
same,"daunorubicin retention, Channel Number (fluorescence units), 1 μM FTC",MCF-7 cells [10]; 1 μM daunorubicin,16.0 ± 0.98 fluorescence units
same,"daunorubicin retention, Channel Number (fluorescence units), 5 μM FTC",MCF-7 cells [10]; 1 μM daunorubicin,16.8 ± 1.0 fluorescence units
same,Dose modifying factor,MCF 7/AdVp cells,0.7 (10.7)
